Reference: publication PMC5877436, “A first-in-human phase I study to determine the maximum tolerated dose of the oral Src/ABL inhibitor AZD0424” (British Journal of Cancer, 2018)
“Also recorded” adds a separate entry of the source. Where two headings read alike, the source gives them in different places.

What was measured:
[1] = format: in vivo
Src [2] = assay: Urinary NTX and serum CTX levels as markers of Src inhibition; format: in vivo, human
Protocol: Src inhibition is known to reduce bone resorption, resulting in a decrease in urinary N-terminal cross-linking telopeptides of type I collagen (NTX) and serum C-terminal cross-linking telopeptides of type I collagen (CTX) ([Hannon et al, 2012]). Measurements of urinary NTX and serum CTX levels were performed before the first administration of AZD0424 and then weekly, at the same time of day, for up to 6 weeks following first administration as markers of Src inhibition. Samples were analysed at the Mellanby Centre for Bone Research in Sheffield using the Cobas e411 automated immunoassay (Roche Diagnostics, Mannheim, Germany) for serum CTX (ng ml^−1), and the Ortho Clinical Diagnostics (High Wycombe, UK) automated immunoassay for urine NTX. Urinary NTX measurements were reported as a ratio to urinary creatinine (nmol bone collagen equivalent (BCE)/mmol creatinine). Tumour biopsies for measurement of tumour biomarkers (p-Src, Ki67, p-PAX, and p-FAK) by immunohistochemical staining were optional.

advanced solid tumours = assay: Disease response by RECIST 1.1; format: in vivo, human
Protocol: All patients receiving at least one dose of AZD0424 were evaluable for safety and efficacy analyses. Safety and tolerability of AZD0424 were assessed according to NCI CTCAE version 4.02. Patients who were withdrawn from treatment, or received less than 75% of the planned doses of AZD0424 during the first cycle, for reasons other than toxicity were not evaluable for dose review decisions and could be replaced. Disease response was assessed according to RECIST 1.1. For stable disease (SD), follow-up measurements had to meet the SD criteria at least once at least 6 weeks after the first dose of AZD0424.

Src [3] = tested on: Src; parameters: method as in Cancer Research UK Centre for Drug Development, 2015; conditions: ref Cancer Research UK Centre for Drug Development, 2015; cited from earlier work
[4] = human, in vivo
Protocol: (§1) Treatment cycles consisted of 28 days of continuous AZD0424 administration, and treatment was to be continued until disease progression, patient withdrawal or unacceptable toxicity.
(§2) All patients receiving at least one dose of AZD0424 were evaluable for safety and efficacy analyses. Safety and tolerability of AZD0424 were assessed according to NCI CTCAE version 4.02.

ABL1 = tested on: ABL1; parameters: method as in Cancer Research UK Centre for Drug Development, 2015; conditions: ref Cancer Research UK Centre for Drug Development, 2015; cited from earlier work
Yes = tested on: Yes; parameters: method as in Cancer Research UK Centre for Drug Development, 2015; conditions: ref Cancer Research UK Centre for Drug Development, 2015; cited from earlier work
Lck = tested on: Lck; parameters: method as in Cancer Research UK Centre for Drug Development, 2015; conditions: ref Cancer Research UK Centre for Drug Development, 2015; cited from earlier work
[5] = tested on: C-terminal Src tyrosine kinase (CSK); conditions: cited from earlier work
[6] = tested on: mouse fibroblasts engineered to over-express activated Src kinase (c-SRC 3T3); conditions: in vitro, pre-clinical; cited from earlier work
[7] = tested on: human umbilical vein endothelial cell cultures; conditions: in vitro, growth factor stimulated, pre-clinical; cited from earlier work
[8] = tested on: non-engineered human tumour cell lines; conditions: in vitro, diverse panel, pre-clinical; cited from earlier work
human tumour cells = conditions: in vitro, pre-clinical; cited from earlier work
paxillin = conditions: in vitro, pre-clinical; cited from earlier work
[9] = tested on: human Calu-6 lung tumour xenografts; conditions: rats, pre-clinical; cited from earlier work
[10] = tested on: c-Src 3T mouse xenografts; conditions: immunocompromised rats, subcutaneous, pre-clinical; cited from earlier work
[11] = rat, pre-clinical; cited from earlier work
[12] = dog, pre-clinical; cited from earlier work
clinical = conditions: human, plasma, oral
Protocol: (§3) Patients were fasted for 3 h prior to administration of AZD0424. Blood samples for analysis of plasma levels of AZD0424 were taken at the following time points: Cycle 1: Pre-dose and at 0.5, 1, 2, 4, 6 and 10 h post-dose on Day 1, then at 24 and 48 h and pre-dose on Days 8, 15 and 22; Cycle 2 (Day 29): Pre-dose and at 0.5, 1, 2, 4, 6, 10, 24 and 48 h. For patients receiving twice-daily AZD0424, the timing of samples was in relation to the morning dose of the drug. Plasma was isolated from centrifuged blood samples and stored at −80 °C prior to quantification of AZD0424 by a validated high performance liquid chromatography method with mass spectrometric detection. Plasma concentration/time data were analysed using non-compartmental methods.

VEGFR-2 = conditions: ref Cancer Research UK Centre for Drug Development, 2015; cited from earlier work
[13] = Plasma pharmacokinetics in patients;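 further: patient plasma drug levels measured by validated HPLC with mass spectrometric detection after a 3 h fast, PK parameters from non-compartmental analysis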
Protocol: as §3

[14] = Phase Ia dose escalation: safety and tolerability (NCI CTCAE v4.02, DLT, MTD)
Protocol: as §1, §2

breast cancer cell = tested on: breast cancer cell; parameters: method as in Srinivasan and Plattner, 2006; conditions: ref Srinivasan and Plattner, 2006; cited from earlier work
[15] = parameters: method as in Reddy et al, 2015; conditions: colorectal cancer patients; ref Reddy et al, 2015; cited from earlier work
[16] = parameters: method as in Baselga et al, 2010; conditions: ref Baselga et al, 2010; cited from earlier work

## CC(=O)N1CCN(CCOc2cc(OC(C)C)c3c(Nc4c(Cl)cnc5c4OCO5)ncnc3c2)CC1 [AZD0424, 7-[2-(4-Acetylpiperazin-1-yl)ethoxy]-N-(6-chloro[1,3]dioxolo[4,5-b]pyridin-7-yl)-5-isopropoxyquinazolin-4-amine]
[1]
  one tenth of the maximum tolerated dose in rat scaled to man: 17 mg
Src [2]; 5 mg, single patient
  change in CTX or NTX level: No significant post-administration changes
Src [2]; CTX and NTX
  dose giving clear evidence of Src target inhibition / inhibition of bone turnover: ≥ 20 mg per day
Src [2]; all cohorts other than 5 mg, by week 2, maintained to 7 weeks
  change in CTX and NTX: a fall relative to baseline values in both CTX and NTX
Src [2]; doses of more than 10 mg per day, saracatinib data ref Hannon et al, 2012
  percentage reductions in CTX and NTX compared with 50 mg per day of saracatinib: Greater percentage reductions
Advanced solid tumours; 22/41
  rate of PD: 53.7%
Advanced solid tumours; all cohorts
  patients with SD lasting >12 weeks: five
  patients with best response of PD: Twenty-two
Advanced solid tumours; all cohorts, 7 of 41 patients
  patients with best response of stable disease lasting at least 6 weeks: 17.1%
Advanced solid tumours; all cohorts, N=41
  complete response or partial response: No responses were observed; also recorded: No patients
Src [3]
  IC50: ~4 nM
[4]
  Alopecia, treatment-related AE, All grades patients: 17 (41) n (%)
  Alopecia, treatment-related AE, Grade 3–5 patients: 0 n (%)
  Anaemia, treatment-related AE, All grades patients: 7 (17) n (%)
  Anaemia, treatment-related AE, Grade 3–5 patients: 3 (7) n (%)
  Anorexia, treatment-related AE, All grades patients: 19 (46) n (%)
  Anorexia, treatment-related AE, Grade 3–5 patients: 1 (2) n (%)
  Aspartate aminotransferase increased, treatment-related AE, All grades patients: 5 (12) n (%)
  Aspartate aminotransferase increased, treatment-related AE, Grade 3–5 patients: 0 n (%)
  Cmin at which Grade 2 or 3 hypophosphataemia appeared more frequent: ≥ 200 nM
  Constipation, treatment-related AE, All grades patients: 6 (15) n (%)
  Constipation, treatment-related AE, Grade 3–5 patients: 1 (2) n (%)
  Diarrhoea, treatment-related AE, All grades patients: 12 (29) n (%)
  Diarrhoea, treatment-related AE, Grade 3–5 patients: 2 (5) n (%)
  Dysgeusia, treatment-related AE, All grades patients: 14 (34) n (%)
  Dysgeusia, treatment-related AE, Grade 3–5 patients: 0 n (%)
  Fatigue, treatment-related AE, All grades patients: 21(51) n (%)
  Fatigue, treatment-related AE, Grade 3–5 patients: 5 (12) n (%)
  Headache, treatment-related AE, All grades patients: 5 (12) n (%)
  Headache, treatment-related AE, Grade 3–5 patients: 0 n (%)
  Hypophosphataemia, treatment-related AE, All grades patients: 16 (39) n (%)
  Hypophosphataemia, treatment-related AE, Grade 3–5 patients: 8 (20) n (%)
  Lymphocyte count decreased, treatment-related AE, All grades patients: 10 (24) n (%)
  Lymphocyte count decreased, treatment-related AE, Grade 3–5 patients: 5 (12) n (%)
  Maculopapular rash, treatment-related AE, All grades patients: 9 (22) n (%)
  Maculopapular rash, treatment-related AE, Grade 3–5 patients: 2 (5) n (%)
  Nausea, treatment-related AE, All grades patients: 27 (66) n (%)
  Nausea, treatment-related AE, Grade 3–5 patients: 2 (5) n (%)
  Pruritis, treatment-related AE, All grades patients: 7 (17) n (%)
  Pruritis, treatment-related AE, Grade 3–5 patients: 0 n (%)
  Vomiting, treatment-related AE, All grades patients: 13 (32) n (%)
  Vomiting, treatment-related AE, Grade 3–5 patients: 1 (2) n (%)
  dose above which treatment-related AE episodes and Grade 3-5 AEs increased markedly: above 60 mg per day
  nausea, fatigue, anorexia and alopecia, each: patients with treatment-related AE: > 40%
  patients with AE of Grade 3 hypophosphataemia related to the drug: 19.5%
  patients with at least one AE possibly, probably or highly probably related to AZD0424: 92.7%
  patients with at least one AZD0424-related event Grade 3-5 in severity: 41.5%
  patients with decline in lymphocyte count: 68.3%
  patients with dose delays and/or alterations during the study: 63.4%
  protocol-defined RP2D: 80 mg
ABL1
  IC50: ~4 nM
Yes
  activity against Yes: additional activity
Lck
  activity against Lck: additional activity
[5]; ref Cancer Research UK Centre for Drug Development, 2015
  selectivity for Src-Abl1 kinases vs CSK: > 448 fold
[6]
  inhibition of proliferation: potent inhibition of proliferation
[7]
  inhibition of proliferation: inhibited proliferation
[8]
  inhibition of proliferation: generally poor
Human tumour cells
  inhibition of migration: potent inhibition of migration
paxillin
  inhibition of phosphorylation of paxillin: evidence of inhibition of phosphorylation
[9]
  anti-tumour growth effect: moderate anti-tumour growth effects
[10]
  inhibition of tumour growth: profound, dose-dependent inhibition of tumour growth
[11]
  dose limiting toxicity: gastrointestinal toxicity being dose limiting
  hypotension and reflex tachycardia: Hypotension and reflex tachycardia were also observed
[12]
  dose limiting toxicity: gastrointestinal toxicity being dose limiting
  hypotension and reflex tachycardia: Hypotension and reflex tachycardia were also observed
clinical
  Tmax: < 2 h
  half-life: 8.4 ± 2.8 h
clinical; 5 mg
  AUC(0-t): 0.624 µM·h
  Cmax: 68.3 nM
  half-life: 6.7 h
clinical; 10 mg
  AUC(0-t): 1.57 µM·h
  Cmax: 210 nM
  half-life: 6.3 h
clinical; 20 mg
  Cmax: 590 ± 300 nM
  half-life: 6.8 ± 2.6 h
clinical; 40 mg
  AUC(0-t): 6.81 ± 3.46 µM·h
  Cmax: 715 ± 380 nM
  half-life: 10.5 ± 0.8 h
clinical; 60 mg
  AUC(0-t): 9.88 ± 1.77 µM·h
  Cmax: 1380 ± 215 nM
  half-life: 8.2 ± 3.3 h
clinical; 80 mg
  AUC(0-t): 14.1 ± 5.12 µM·h
  Cmax: 1670 ± 602 nM
  half-life: 9.4 ± 5 h
clinical; 120 mg
  AUC(0-t): 24.9 ± 12 µM·h
  Cmax: 2650 ± 923 nM
  half-life: 7.8 ± 3.1 h
clinical; 150 mg
  AUC(0-t): 25.6 ± 4.15 µM·h
  Cmax: 4110 ± 1540 nM
  half-life: 7.8 ± 2.1 h
VEGFR-2
  selectivity for Src-Abl1 kinases vs VEGFR-2: > 933 fold
[13]; comparable doses, saracatinib data ref Baselga et al, 2010
  Cmax and AUC(0-24 h) compared with saracatinib: much higher for AZD0424 than saracatinib
[13]; o.d. dosing 5-150 mg
  dose dependence of Cmax and AUC: increased linearly with dose; also recorded: Linear, dose-dependent increases; also recorded: dose-dependent, linear increases
[13]; oral
  absorption and bioavailability: rapid absorption and high bioavailability
[14]; all cohorts
  deaths due to pneumonia considered possibly related to AZD0424: One
  patients who died within 4 weeks of the last administration: Four
[14]; o.d., continuous oral dosing, 28-day cycles
  maximum tolerated dose (MTD): 120 mg

## COc1cc(Nc2c(C#N)cnc3cc(OCCCN4CCN(C)CC4)c(OC)cc23)c(Cl)cc1Cl [bosutinib, reference compound]
[5]; ref Davis et al, 2011
  selectivity for SFKs over CSK: ~30 fold

## Cc1ccc(NC(=O)c2ccc(CN3CCN(C)CC3)cc2)cc1Nc1nccc(-c2cccnc2)n1 [imatinib]
Breast cancer cell
  inhibition of cell motility: markedly inhibits cell motility

## CN1CCN(CCOc2cc(OC3CCOCC3)c3c(Nc4c(Cl)ccc5c4OCO5)ncnc3c2)CC1 [saracatinib]
[15]
  rate of Grade 3 hypophosphataemia: 50%
[16]
  recommended phase II dose (RP2D): 175 mg
